Laboratory results as given in patent publication US7919101B2 (priority 2008, dated 2011).
“And” between values parts separate entries of the source, which are not always exact repeats. Equal values may be shown once. Read-outs that look alike come from different tables or passages of the source.

Assays:
Assay type in all cases: cell-based
[1] = test system: HIV-1-mediated cell-cell fusion (H9/HIV-1IIIB cells and MT-2 cells); test: HIV-1-mediated cell-cell fusion, dye transfer assay
Protocol: The inhibitory activities of the compounds on HIV-induced cell-cell fusion were determined using a dye transfer assay (Jiang S et al. Proc SPIE 3926:212-219, 2000). Briefly, H9/HIV-1IIIB cells were pre-labeled with a fluorescent dye, Calcein AM (Molecular Probes, Inc.), and incubated with a testing compound at a graded concentration at 37° C. for 30 min in a 96-well cell culture plate. Then the CD4^+ MT-2 cells were added to the H9/HIV-1IIIB cells at a ratio of 10:1, followed by incubation at 37° C. for 2 hrs. The fused and unfused calcein-labeled HIV-1-infected cells were counted under an inverted fluorescence microscope with an eyepiece micrometer disc.

[2] = test system: HIV-1 RU570 (clade G, R5); test: Inhibition of infection by primary HIV-1 isolate RU570
Protocol: Inhibitory activity of fusion/entry inhibitors on infection by a primary HIV-1 isolate was determined as previously described (Jiang S et al. Antimicrob Agents Chemother 48:4349-4359, 2004). Peripheral blood mononuclear cells (PBMCs) were isolated from the blood of healthy donors by standard density gradient centrifugation using Histopaque-1077 (Sigma). The cells were plated in 75 cm^2 plastic flasks and incubated at 37° C. for 2 hrs. The nonadherent cells were collected and resuspended at 5×10^6 in 10 ml RPMI-1640 medium containing 10% FBS, 5 μg/ml PHA (phytohemagglutinin) and 100 U/ml IL-2 (Sigma), followed by incubation at 37° C. for 3 days. The PHA-stimulated cells were infected with a primary HIV-1 isolates at 0.01 MOI in the absence or presence of a compound at graded concentrations. Culture media were changed every 3 days. The supernatants were collected 7 days post-infection and tested for p24 antigen by ELISA as described above. The percent inhibition of p24 production and EC50 values were calculated as described above.
(§1) 4. Synergy analysis. […] In all analyses, HIV fusion/entry inhibitors were assumed to act noncompetitively, which led to a more conservative estimate of synergy. CI values<1 and >1 indicate synergy and antagonism, respectively. Dose reductions were calculated as the compound concentrations required for inhibition of HIV-1 replication when the compound was used alone and in combination. The statistic analysis was performed by the One-Way Analysis of Variance (One-Way ANOVA) method using Origin 6.1 software.

HIV-1 NL4-3D36G = test: Inhibition of infection by T-20-sensitive strain NL4-3D36G; details: NL4-3D36G
Protocol: 2. Inhibition of HIV infection as measured by luciferase assay. The inhibitory activity of fusion/entry inhibitors on HIV infection in TZM-bl cells was determined by using a luciferase assay (Wei X et al. Antimicrob. Agents Chemother. 46:1896-1905, 2002). Briefly, 50 μl of a compound at graded concentration in triplicate were incubated with an equal volume of an HIV-1 isolate at 0.01 multiplicity of infection (MOI) at 37° C. for 30 min, followed by addition of the mixture to 100 μl TZM-bl cells (1×10^5/ml) that were pre-cultured in a 96-well plate at 37° C. overnight. After further culture at 37° C. for 3 days, the cells were harvested and lyzed with 50 μl lysing reagent. The luciferase activity was analyzed using a luciferase kit (Promega Corp.) and a luminometer (Model: Ultra […], Tecan) according to the manufacture's instruction. The percent inhibition of cell fusion by a compound as well as EC50 and EC90 values were calculated using the software CalcuSyn.
3. Inhibition of HIV replication as measured by p24 antigen production. The inhibitory activity of fusion/entry inhibitors on HIV-1 infection as measured by p24 antigen production was determined as previously described (Zhao Q et al. AIDS Res Hum Retroviruses 18:989-997, 2002). In brief, 1×10^4 MT-2 cells were infected with an HIV-1 strain (100 TCID50) in 200 μl RPMI 1640 medium containing 10% FBS in the presence or absence of testing compounds at graded concentrations overnight. Then the culture supernatants were removed and fresh media containing no testing compounds were added. On the fourth day post-infection, 100 μl of culture supernatants were collected from each well, mixed with equal volumes of 5% Triton X-100 and assayed for p24 antigen, which was quantitated by ELISA. Briefly, wells of polystyrene plates were coated with HIV immunoglobulin (HIVIG, prepared from plasma of HIV-seropositive donors with high neutralizing titers against HIV-1IIIB), in 0.085 M carbonate-bicarbonate buffer (pH 9.6) at 4° C. overnight, followed by washes with washing buffer (0.01 M PBS containing 0.05% Tween-20) and blocking with PBS containing 1% dry fat-free milk. Virus lysates were added to the wells and incubated at 37° C. for 1 hr. […] Reactions were terminated by addition of 1N H2SO4. Absorbance at 450 nm was recorded in an ELISA reader (Ultra 384, TECAN). Recombinant protein p24, purchased from US Biological, was included for establishing standard dose response curves. Each sample was tested in triplicate. The percentage of inhibition of p24 production was calculated as previously described (Neurath A R et al. BMC Infect Dis 2:6, 2002).
as §1

[3] = in combination T-20:C34 (8:1) vs alone
[4] = in combination T-20:Sifuvirtide (4:1)
[5] = in combination T-20:Sifuvirtide (4:1) vs alone
[6] = in combination T-20:T-1144 (4:1)
[7] = in combination T-20:T-1144 (4:1) vs alone
[8] = in combination T-20:T-1249 (4:1)
[9] = in combination T-20:T-1249 (4:1) vs alone
[10] = in combination T-20:T-1249:C34 (8:2:1)
[11] = in combination T-20:T-1249:C34 (8:2:1) vs alone
[12] = in combination T-20:T-1249:T-1144 (4:1:1)
[13] = in combination T-20:T-1249:T-1144 (4:1:1) vs alone
[14] = peptide tested alone, listed as T20

enfuvirtide
EC70 Concentration Mix ([1]; in combination T-20:C34 (8:1)): 0.427 nM
EC95 Concentration Mix ([1]; in combination T-20:C34 (8:1)): 0.682 nM
Potency increase at EC50 [1, 3]: 61.108 fold
Potency increase at EC70 [1, 3]: 62.834 fold
Potency increase at EC95 [1, 3]: 65.594 fold
EC50 ([1]; in combination T-20:C34 (8:1), read-out: EC50 Concentration Mix): 0.324 nM
EC90 ([1]; in combination T-20:C34 (8:1), read-out: EC90 Concentration Mix): 0.564 nM
EC70 Concentration Mix [1, 4]: 2.356 nM
EC95 Concentration Mix [1, 4]: 3.537 nM
Potency increase at EC50 [1, 5]: 8.928 fold
Potency increase at EC70 [1, 5]: 8.863 fold
Potency increase at EC95 [1, 5]: 8.757 fold
EC50 ([1]; in combination T-20:Sifuvirtide (4:1), read-out: EC50 Concentration Mix): 1.85 nM
EC90 ([1]; in combination T-20:Sifuvirtide (4:1), read-out: EC90 Concentration Mix): 3 nM
EC70 Concentration Mix [1, 6]: 0.033 nM
EC95 Concentration Mix [1, 6]: 0.052 nM
Potency increase at EC50 [1, 7]: 791.960 fold
Potency increase at EC70 [1, 7]: 813.030 fold
Potency increase at EC95 [1, 7]: 860.288 fold
EC50 ([1]; in combination T-20:T-1144 (4:1), read-out: EC50 Concentration Mix): 0.025 nM
EC90 ([1]; in combination T-20:T-1144 (4:1), read-out: EC90 Concentration Mix): 0.043 nM
EC70 Concentration Mix [1, 8]: 0.051 nM
EC95 Concentration Mix [1, 8]: 0.082 nM
Potency increase at EC50 [1, 9]: 521.026 fold
Potency increase at EC70 [1, 9]: 526.078 fold
Potency increase at EC95 [1, 9]: 545.549 fold
EC50 ([1]; in combination T-20:T-1249 (4:1), read-out: EC50 Concentration Mix): 0.038 nM
EC90 ([1]; in combination T-20:T-1249 (4:1), read-out: EC90 Concentration Mix): 0.068 nM
EC70 Concentration Mix [1, 10]: 0.070 nM
EC95 Concentration Mix [1, 10]: 0.108 nM
Potency increase at EC50 [1, 11]: 366.648 fold
Potency increase at EC70 [1, 11]: 383.286 fold
Potency increase at EC90 [1, 11]: more than 399 fold
Potency increase at EC95 [1, 11]: 414.213 fold
Potency increase at EC90 ([1]; in combination T-20:T-1249:C34 (8:2:1) vs alone, listed as T20): 399.648 fold
EC50 ([1]; in combination T-20:T-1249:C34 (8:2:1), read-out: EC50 Concentration Mix): 0.054 nM
EC90 ([1]; in combination T-20:T-1249:C34 (8:2:1), read-out: EC90 Concentration Mix): 0.091 nM
EC70 Concentration Mix [1, 12]: 0.019 nM
EC95 Concentration Mix [1, 12]: 0.029 nM
Potency increase at EC50 [1, 13]: 1319.933 fold
Potency increase at EC70 [1, 13]: 1412.105 fold
Potency increase at EC95 [1, 13]: 1542.586 fold
EC50 ([1]; in combination T-20:T-1249:T-1144 (4:1:1), read-out: EC50 Concentration Mix): 0.015 nM
EC90 ([1]; in combination T-20:T-1249:T-1144 (4:1:1), read-out: EC90 Concentration Mix): 0.025 nM
EC70 Concentration Alone ([1]; peptide tested alone): 26.830 nM and 20.882 nM
EC95 Concentration Alone ([1]; peptide tested alone): 44.735 nM and 30.973 nM
EC70 Concentration Alone [1, 14]: 26.830 nM
EC95 Concentration Alone [1, 14]: 44.735 nM
EC50 ([1]; peptide tested alone, read-out: EC50 Concentration Alone): 19.8 nM and 16.5 nM
EC90 ([1]; peptide tested alone, read-out: EC90 Concentration Alone): 36.4 nM and 26.4 nM
EC50 ([2]; RU570 (G, R5) primary isolate, peptide alone, read-out: EC50 alone): 38.4 nM
Dose reduction ([2]; RU570, T-20+T-1249+T-1144 4:1:1): 8.47 fold
EC50 ([2]; RU570, T-20+T-1249+T-1144 4:1:1, read-out: EC50 in mixture): 4.54 nM
Dose reduction ([2]; RU570, T-20 combined with T-1144): 7.41 fold
EC50 ([2]; RU570, T-20 combined with T-1144, ratios 4:1:1, read-out: EC50 in mixture): 5.19 nM
EC50 ([2]; RU570, T-20 combined with T-1249, ratios 4:1:1, read-out: EC50 in mixture): 5.98 nM
Dose reduction (HIV-1 NL4-3D36G; T-20+T-1249+T-1144 7:5:1): 18.61 fold
Dose reduction (HIV-1 NL4-3D36G; T-20 combined with T-1144): 15.53 fold
Dose reduction (HIV-1 NL4-3D36G; T-20 combined with T-1249): 6.48 fold
